One assay has as its target T1, STAT6 (Homo sapiens, UniProt P42226).
T1 construct: These cells express endogenous STAT6; host or cells: HeLa LgBiT clone 4.14
T1 sequence (P42226 1-847): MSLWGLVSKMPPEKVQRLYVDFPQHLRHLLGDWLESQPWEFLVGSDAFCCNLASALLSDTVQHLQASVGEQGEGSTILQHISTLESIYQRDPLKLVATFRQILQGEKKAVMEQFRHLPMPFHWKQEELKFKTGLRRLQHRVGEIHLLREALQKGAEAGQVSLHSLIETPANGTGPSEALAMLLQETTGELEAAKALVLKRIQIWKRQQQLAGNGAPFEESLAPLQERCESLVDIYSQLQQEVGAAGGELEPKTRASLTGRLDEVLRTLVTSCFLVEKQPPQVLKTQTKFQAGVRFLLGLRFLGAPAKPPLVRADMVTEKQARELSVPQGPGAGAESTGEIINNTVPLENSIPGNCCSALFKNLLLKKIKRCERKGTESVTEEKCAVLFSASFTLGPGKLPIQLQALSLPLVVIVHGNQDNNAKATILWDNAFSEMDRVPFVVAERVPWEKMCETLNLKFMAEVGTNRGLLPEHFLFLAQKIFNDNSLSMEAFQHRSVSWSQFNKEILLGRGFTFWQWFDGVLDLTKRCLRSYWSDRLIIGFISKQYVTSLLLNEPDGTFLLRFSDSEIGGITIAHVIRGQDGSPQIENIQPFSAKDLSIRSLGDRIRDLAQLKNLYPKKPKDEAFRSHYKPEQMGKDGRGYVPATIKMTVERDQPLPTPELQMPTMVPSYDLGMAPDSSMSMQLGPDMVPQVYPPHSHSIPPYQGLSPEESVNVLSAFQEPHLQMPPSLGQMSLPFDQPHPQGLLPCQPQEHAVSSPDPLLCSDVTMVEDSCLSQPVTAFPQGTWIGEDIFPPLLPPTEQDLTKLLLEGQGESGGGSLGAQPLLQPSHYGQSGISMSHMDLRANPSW
As to the kind of experiment: Stat6 Degrader Assay (HiBiT based, HeLa LgBiT clone 4.14). The assay is classed as cell-based. As to conditions: HeLa LgBiT clone 4.14 HiBiT-STAT6, 4-24 h incubation; values given for compounds with >80% Emax; geometric mean; read-out: STAT6 degradation DC50. A digest of the protocol: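 HeLa LgBiT clone 4.14 cells with CRISPR HiBiT-tagged endogenous STAT6, 5000 cells/well, compound dosed then incubated 4-24 h at 37° C, 5% CO2. Nano-Glo substrate added, 0.5 h, luminescence read as non-degraded STAT6. Terfenadine 50 μM (cell kill) defines 100% degradation.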

In assay [1] the test system is Eotaxin-3 release in human whole blood stimulated with IL-4. Description: Human Whole Blood Eotaxin-3 Assay (IL-4 stimulated eotaxin-3 release). The format is cell-based. The conditions noted are these: IL-4 stimulation, 48 h, values given for compounds with >80% Emax, geometric mean. As for the experimental part:
Human Whole Blood Eotaxin-3 Assay
This was a human whole blood assay using recombinant human Interleukin 4 to stimulate the blood and measuring the ability of the test compounds to inhibit eotaxin-3 release. The biological activities of the test compounds have been tested in human whole blood stimulated with IL-4 measuring Eotaxin-3 release. The test compounds were added to 384 well clear flat-bottom plate in a 4-fold serial dilution in triplicates using a liquid handler. Human whole blood stabilized in lithium-heparin tubes was added in a volume of 65 μL per well, resulting in a final DMSO concentration of 0.5%. The plate is incubated for 2 h at 37° C. under 5% CO2/95% air. Subsequently, 5 μL of recombinant human IL-4 (R&D Systems, cat #204-ILB) was added to the wells to a final concentration of […]. The plate was incubated for 48 h at 37° C. under 5% CO2/95% air. The plate was spun down for 10 minutes at 500×g and 20 μL supernatant was harvested and transferred to a 384 well v-bottom plate using a liquid handler and stored at −20° C. until further analysis. 10 μL supernatant was used to measure the level of Eotaxin-3 (CCL26) using Human Eotaxin-3 MSD kit from Mesocsale (Cat #K251UEK-4). The assay was performed according to the manufacture instructions.
The data from the human whole blood eotaxin-3 assay is shown in FIG. 2 for Examples 3u208, 3u246, 3u118, 3u119, 3u120, and 3u74 (where the effect in % is plotted against the test concentration in M on a log scale).

The term DC50 denotes the concentration giving 50% degradation. As usually defined, the EC50 is the concentration giving half of the maximal effect. A low value points to higher potency in that assay.

For the molecule `CNc1ccn(-c2ccnc3c2cc([C@H](C)N2CCC(c4ccc(C(=O)N5CCC(CN6CCN(Cc7ccc8c(c7)C7(CC7)C(=O)N8C7CCC(=O)NC7=O)C[C@@H]6C)CC5)cc4)CC2)n3C)c(=O)c1` (mixture of isomers) [Example 3u5, 3-(5′-(((S)-3-methyl-4-((1-(4-(1-((S)-1-(1-methyl-4-(4-(methylamino)-2-oxopyridin-1 (2H)-yl)-1H-pyrrolo[2,3-b]pyridin-2-yl)ethyl)piperidin-4-yl)benzoyl)piperidin-4-yl)methyl)piperazin-1-yl)-methyl)-2′-oxospiro[cyclopropane-1,3′-indolin]-1′-yl)piperidine-2,6-dione], at STAT6, the DC50 was 1 nM. Moreover, the EC50 in assay [1] is 0.8 nM.
The matching figures for `CNc1cc(=O)n(-c2ccnc3c2cc([C@H](C)N2CC=C(c4c(F)cc(C(=O)N5CCC(CN6CCN(Cc7ccc8c(c7)n(C)c(=O)n8C7CCC(=O)NC7=O)CC6)CC5)cc4F)CC2)n3C)cc1F` (mixture of isomers) [Example 3u51, 3-(5-((4-((1-(3,5-difluoro-4-(1-((S)-1-(4-(5-fluoro-4-(methylamino)-2-oxopyridin-1 (2H)-yl)-1-methyl-1H-pyrrolo[2,3-b]pyridin-2-yl)ethyl)-1,2,3,6-tetrahydropyridin-4-yl)benzoyl)piperidin-4-yl)methyl)piperazin-1-yl)methyl)-3-methyl-2-oxo-2,3-dihydro-1H-benzo[d]imidazol-1-yl)piperidine-2,6-dione]: 1.8 nM and 1.9 nM.
The matching figures for `CNc1ccn(-c2ccnc3c2cc([C@H](C)N2CC=C(c4c(C)cc(C(=O)N5CCC(CN6CCN(Cc7ccc8c(c7)C7(CC7)C(=O)N8C7CCC(=O)NC7=O)C[C@@H]6C)CC5)cc4F)CC2)n3C)c(=O)c1` (mixture of isomers) [Example 3u190, 3-(5′-(((S)-4-((1-(3-fluoro-5-methyl-4-(1-((S)-1-(1-methyl-4-(4-(methylamino)-2-oxopyridin-1 (2H)-yl)-1H-pyrrolo[2,3-b]pyridin-2-yl)ethyl)-1,2,3,6-tetrahydropyridin-4-yl)benzoyl)piperidin-4-yl)methyl)-3-methylpiperazin-1-yl)methyl)-2′-oxospiro[cyclopropane-1,3′-indolin]-1′-yl)piperidine-2,6-dione]: 0.5 nM and 0.9 nM.
The matching figures for `CNc1ccn(-c2ccnc3c2cc([C@H](C)N2CCC(c4ccc(C(=O)N5CCC(CN6CCN(Cc7ccc8c(c7)C7(CC7)C(=O)N8[C@H]7CCC(=O)NC7=O)C[C@@H]6C)CC5)cc4)CC2)n3C)c(=O)c1` (single isomer, unassigned) [Example 3u6]: 0.7 nM and 19.3 nM.
On to `CNc1ccn(-c2ccnc3c2cc([C@H](C)N2CC=C(c4c(C)cc(C(=O)N5CCC(CN6CCN(Cc7cc8c(cc7F)n([C@H]7CCC(=O)NC7=O)c(=O)n8C)CC6)CC5)cc4F)CC2)n3C)c(=O)c1` (single isomer, unassigned) [Example 3u11], for which, on STAT6, the DC50 stood at 0.5 nM. This molecule also showed an EC50 in assay [1] of 0.2 nM.
In turn, `CNc1cc(=O)n(-c2ccnc3c2cc([C@H](C)N2CC=C(c4c(C)cc(C(=O)N5CCC(CN6CCN(c7cccc8c7n(C)c(=O)n8C7CCC(=O)NC7=O)CC6)CC5)cc4F)CC2)n3C)cc1F` (stereo partly drawn) [Example 3u271, 3-(4-(4-((1-(3-fluoro-4-(1-((S)-1-(4-(5-fluoro-4-(methylamino)-2-oxopyridin-1 (2H)-yl)-1-methyl-1H-pyrrolo[2,3-b]pyridin-2-yl)ethyl)-1,2,3,6-tetrahydropyridin-4-yl)-5-methylbenzoyl)-piperidin-4-yl)methyl)piperazin-1-yl)-3-methyl-2-oxo-2,3-dihydro-1H-benzo[d]imidazol-1-yl)-piperidine-2,6-dione] came in with an EC50 in assay [1] of 3.3 nM.
In assay [1], `CNc1ccn(-c2ccnc3c2cc([C@H](C)N2CC=C(c4c(C)cc(C(=O)N5CCC(CN6CCN(c7cc8c(cc7F)n(C7CCC(=O)NC7=O)c(=O)n8C)CC6)CC5)cc4F)CC2)n3C)c(=O)c1F` (stereo partly drawn) [Example 3u273, 3-(6-fluoro-5-(4-((1-(3-fluoro-4-(1-((S)-1-(4-(3-fluoro-4-(methylamino)-2-oxopyridin-1 (2H)-yl)-1-methyl-1H-pyrrolo[2,3-b]pyridin-2-yl)ethyl)-1,2,3,6-tetrahydropyridin-4-yl)-5-methylbenzoyl)piperidin-4-yl)methyl)piperazin-1-yl)-3-methyl-2-oxo-2,3-dihydro-1H-benzo[d]imidazol-1-yl)piperidine-2,6-dione] displayed an EC50 of 31.8 nM.
Molecule `CNc1cc(=O)n(-c2ccnc3c2cc([C@H](C)N2CC=C(c4c(C)cc(C(=O)N5CCC(CN6CCC(c7ccc8c(c7)C7(CC7)C(=O)N8C7CCC(=O)NC7=O)CC6)CC5)cc4F)CC2)n3C)cc1F` (stereo partly drawn) [Example 3u282, 3-(5′-(1-((1-(3-fluoro-4-(1-((S)-1-(4-(5-fluoro-4-(methylamino)-2-oxopyridin-1 (2H)-yl)-1-methyl-1H-pyrrolo[2,3-b]pyridin-2-yl)ethyl)-1,2,3,6-tetrahydropyridin-4-yl)-5-methylbenzoyl)-piperidin-4-yl)methyl)piperidin-4-yl)-2′-oxospiro[cyclopropane-1,3′-indolin]-1′-yl)piperidine-2,6-dione] showed an EC50 in assay [1] of 6.9 nM.
Turning to `CNc1cc(=O)n(-c2ccnc3c2cc([C@H](C)N2CC=C(c4c(C)cc(C(=O)N5CCC(O)(CC6CCN(c7ccc8c(c7)C7(CC7)C(=O)N8C7CCC(=O)NC7=O)CC6)CC5)cc4F)CC2)n3C)cc1F` (stereo partly drawn) [Example 3u283, 3-(5′-(4-((1-(3-fluoro-4-(1-((S)-1-(4-(5-fluoro-4-(methylamino)-2-oxopyridin-1 (2H)-yl)-1-methyl-1H-pyrrolo[2,3-b]pyridin-2-yl)ethyl)-1,2,3,6-tetrahydropyridin-4-yl)-5-methylbenzoyl)-4-hydroxypiperidin-4-yl)methyl)piperidin-1-yl)-2′-oxospiro[cyclopropane-1,3′-indolin]-1′-yl)piperidine-2,6-dione], the EC50 in assay [1] is 126 nM.
The molecule `CNc1cc(=O)n(-c2ccnc3c2cc([C@H](C)N2CC=C(c4c(C)cc(C(=O)N5CCC(CN6CCN(c7cc8c(cc7F)N(C7CCC(=O)NC7=O)C(=O)C87CC7)CC6)CC5)cc4F)CC2)n3C)cc1F` (stereo partly drawn) [Example 3u305, 3-(6′-fluoro-5′-(4-((1-(3-fluoro-4-(1-((S)-1-(4-(5-fluoro-4-(methylamino)-2-oxopyridin-1 (2H)-yl)-1-methyl-1H-pyrrolo[2,3-b]pyridin-2-yl)ethyl)-1,2,3,6-tetrahydropyridin-4-yl)-5-methylbenzoyl)piperidin-4-yl)methyl)piperazin-1-yl)-2′-oxospiro[cyclopropane-1,3′-indolin]-1′-yl)piperidine-2,6-dione] displayed an EC50 in assay [1] of 24.9 nM.
The same measure, in the same setting: next, `CNc1cc(=O)n(-c2ccnc3c2cc([C@H](C)N2CC=C(c4c(C)cc(C(=O)N5CCC(CN6CCN(c7cc8c(cc7F)N(C7CCC(=O)NC7=O)C(=O)C8(C)C)CC6)CC5)cc4F)CC2)n3C)cc1F` (stereo partly drawn) [Example 3u306, 3-(6-fluoro-5-(4-((1-(3-fluoro-4-(1-((S)-1-(4-(5-fluoro-4-(methylamino)-2-oxopyridin-1 (2H)-yl)-1-methyl-1H-pyrrolo[2,3-b]pyridin-2-yl)ethyl)-1,2,3,6-tetrahydropyridin-4-yl)-5-methylbenzoyl)piperidin-4-yl)methyl)piperazin-1-yl)-3,3-dimethyl-2-oxoindolin-1-yl)piperidine-2,6-dione]: 194 nM.

These data come from patent US20250320206A1, “STAT6 DEGRADERS” (Gilead Sciences, Inc., priority 2024, published 2025).
